# Test results taken from US5599548A, “Skin care compositions containing fatty acid amides and retinol or retinyl ester” (priority 1995, dated 1997).
# Where two headings read alike, the source gives them in different places.
# Experiments:
# [1] = test system: TGase I (keratinocyte transglutaminase level); test: Transglutaminase (TGase I) ELISA assay (keratinocyte differentiation); format: cell-based, human; settings: for activity at 0.1 µM / mean TGase level ± s.d: 72 h, ROH 2.5 × 10^-7 M; for effect on keratinocyte TG1 levels / differentiation, in words: concentrations as in the respective Example
# Protocol: (§1) Human keratinocytes, isolated from neonatal foreskin by trypsin treatment were grown in Dulbecco Modification Eagle (DME) Hams F12 (1:1) medium/10% fetal calf serum in the presence of irradiated 3T3 mouse fibroblasts for establishing dividing keratinocyte colonies. Cells were grown under the above condition until their second passage and kept frozen for future use. […] On day 7, when the cells were 80-90% confluent, they were trypsinized and plated in the serum-free medium for the various experiments.
# During the process of terminal differentiation in the epidermis, a 15 nm thick layer of protein, known as the cornified envelope (CE) is formed on the inner surface of the cell periphery. The CE is composed of numerous distinct proteins which have been cross-linked together by the formation of N^ε -(γ-glutamyl) lysine isodipeptide bonds catalyzed by the action of at least two different transglutaminases (TGases) expressed in the epidermis. TGase I is expressed in abundance in the differentiated layers of the epidermis, especially the granular layer, but is absent in the undifferentiated basal epidermis. Thus TGase I is a useful marker of epidermal keratinocyte differentiation with high TGase I levels indicating a more differentiated state. An ELISA based TGase I assay, using a TGase I antibody, was used to assess the state of differentiation of the cultured keratinocytes in the examples that follow.
# Keratinocytes (cultured as described above) were plated in 96 well plates at a density of 3,000 cells per well in 200 μl media. After incubation for four days the media was changed to media containing test compounds (six replicates per test). The cells were cultured for a further 72 hours after which time the media was aspirated and the plates stored at -70° C. Plates were removed from the freezer, and the cells washed with PBS. 100 μl sterile water was added and the cells were freeze fractured by freezing at -70° C. then thawing. The cells were incubated for one hour at room temperature (R/T) with PBS/3% BSA (wash buffer, bovine serum albumin), then rinsed with a fresh aliquot of wash buffer. Cells were incubated with 50 μl of primary antibodies monoclonal anti-human transglutaminase (IgG) obtained from Amersham (mouse) diluted 1:300 in wash buffer for one hour, 37° C. then rinsed two times with wash buffer. Cells were then incubated with 50 μl of secondary antibody (Feb fragment, peroxidase conjugated anti-mouse IgG obtaining from Amersham) diluted 1:200 in wash buffer for one hour at 37° C., then rinsed two times with wash buffer. Cells were incubated with substrate solution (4 mg o-phenylene diamine and 3.3 μl 30% H2 O2 in 10 ml 0.1M citrate buffer pH 5.0) for five minutes, R/T, in darkness (under aluminum foil). The reaction was stopped by the addition of 50 μl 4N H2 SO4. The absorbance of samples was read at 492 nm in the plate reader. Out of the six replicates, four were treated with both antibodies, two were treated only with the secondary antibody (i.e., to determine background binding of enzyme conjugated Ab). TGase levels were determined by subtracting background from the readings from each treatment and determining mean ±s.d. for the replicates exposed to both Ab.
# Human keratinocytes = test: 3H-Thymidine incorporation (keratinocyte proliferation); format: cell-based; settings: for effect on keratinocyte proliferation, in words: concentrations as in the respective Example; for activity at 0.001 µM: Table 4D, ROH 2.5 × 10^-8 M, linoleoyl-MEA 10^-9 M; for activity at 0.001 µM / activity at 1 µM: RA; for activity at 1 µM: Table 4C, retinol 2.5 × 10^-8 M, palmitoyl-MEA 10^-6 M
# Protocol: as §1
# The incorporation of […] by cultured keratinocytes was used as an assay of keratinocyte proliferation. Thymidine is one of four deoxynucleosides which are the monomeric units of DNA, the universal library of genetic information in the animal kingdom. Prior to cell division of a somatic cell such as a keratinocyte, the complete genome of the cell undergoing cell division is replicated. This involves large scale DNA synthesis by the cell and enables both daughter cells to receive identical copies of the genetic material. When ^3 H-thymidine is included in the culture media of keratinocytes which are synthesizing DNA in preparation for cell division then the labelled nucleoside is incorporated into the newly synthesized DNA. The extent of incorporation of ^3 H-thymidine into a population of cells is proportional to the rate of DNA synthesis by this population of cells and therefore an indication of their cellular proliferation.
# Keratinocytes (that were cultured as described above) were plated in 24 well plates at a density of 40,000 cells per well in 1 ml media. After incubation for four days or until the cells were 60-70% confluent, the media was changed. Test compounds were added (in triplicate) to the wells 24 hours after the media change, and four hours later 1μCi^3 H-Thymidine in 50 μl media was added per well. Cells were incubated for a further 24 hours. Media was removed from the cells, 10% ice cold trichloroacetic acid (TCA) added and plates were incubated on ice for 30 minutes. Cells were washed five times with 5% TCA and allowed to dissolve in 500 μl 0.1M NaOH for at least one hour (usually overnight). The preparations were neutralized with 0.1M HCl; 50 μl of the cell preparation was used to determine total protein content. Disintegrations per minute (DPM) from ^3 H labelling of DNA was determined by liquid scintillation counting of […] of the cell preparation. Thymidine incorporation results were expressed as DPM/μg protein.
compound,measurement,setting,value
"CC(N)=O [Acetamide (C2), acetamide]",activity at 0.1 µM,"[1]; Homo sapiens, Keratinocyte, Table 6B, RA, acetamide 10^-7 M, alone or combined, n = 3, read-out: TGase (TG1) level, % control",98%
same,mean TGase level ± s.d,"[1]; Table 6B (Effect on Keratinocyte TGase), RA, acetamide 10^-7 M, alone or combined, n = 3",0.480 ± 0.042
same,"effect on keratinocyte TG1 levels / differentiation, in words",[1],no effect on keratinocyte TG1 levels
"NC=O [Formamide (C1), formamide]",activity at 0.1 µM,"[1]; Homo sapiens, Keratinocyte, Table 6A, RA, formamide 10^-7 M, alone or combined, n = 3, read-out: TGase (TG1) level, % control",85%
same,mean TGase level ± s.d,"[1]; Table 6A (Effect on Keratinocyte TGase), RA, formamide 10^-7 M, alone or combined, n = 3",0.413 ± 0.069
same,"effect on keratinocyte TG1 levels / differentiation, in words",[1],small inhibitory effect on keratinocyte TG1 levels
"CCCCC/C=C\C/C=C\CCCCCCCC(=O)O [Linoleic acid (LA), Linoleic acid]",activity at 1 µM,"[1]; Homo sapiens, Keratinocyte, Table 5A, RA, retinol 2.5 × 10^-7 M, linoleic acid 10^-6 M, alone or combined, n = 3, read-out: TGase (TG1) level, % control",> 100%
same,mean TGase ± s.d,"[1]; Table 5A, RA, retinol 2.5 × 10^-7 M, linoleic acid 10^-6 M, alone or combined, n = 3",0.161 ± 0.061
same,"effect on keratinocyte TG1 levels / differentiation, in words",[1],appeared to stimulate TG1
"CCCCC/C=C\C/C=C\CCCCCCCC(=O)OC [Methyl linoleate, methyl linoleate]",activity at 0.01 µM,"[1]; Homo sapiens, Keratinocyte, Table 5B, RA, retinol 2.5 × 10^-8 M, methyl linoleate 10^-8 M, alone or combined, n = 3, read-out: TGase (TG1) level, % control",67%
same,mean TGase ± s.d,"[1]; Table 5B, RA, retinol 2.5 × 10^-8 M, methyl linoleate 10^-8 M, alone or combined, n = 3",0.193 ± 0.033
same,"effect on keratinocyte TG1 levels / differentiation, in words",[1],repressed TG1 to the same extent as 2.5×10^-8 M retinol
CCCCC(=O)N(CCO)CCO [Pentanoyl-DEA (C5-DEA)],activity at 0.1 µM,"[1]; Homo sapiens, Keratinocyte, Table 6C, RA, pentanoyl-DEA 10^-7 M, alone or combined, n = 3, read-out: TGase (TG1) level, % control",99%
same,mean TGase level ± s.d,"[1]; Table 6C (Effect on Keratinocyte TGase), RA, pentanoyl-DEA 10^-7 M, alone or combined, n = 3",0.425 ± 0.079
same,"effect on keratinocyte TG1 levels / differentiation, in words",[1],no effect on keratinocyte TG1 levels
"CCCCCCCCCCCCCCCC(=O)OC/C=C(C)/C=C/C=C(C)/C=C/C1=C(C)CCCC1(C)C [RP, retinyl palmitate]",activity at 0.25 µM,"[1]; Homo sapiens, Keratinocyte, Table 3B, RA, RP 2.5 × 10^-7 M, linoleoyl-DEA 10^-6 M, alone or combined, n = 3, read-out: TGase (TG1) level, % control",82%
same,activity at 2.5 µM,"[1]; Homo sapiens, Keratinocyte, Table 8A, 2.5 × 10^-6 M, n = 3, read-out: TGase, % control",95%
same,activity at 0.25 µM,"[1]; Homo sapiens, Keratinocyte, Table 8A, 2.5 × 10^-7 M, n = 3, read-out: TGase, % control",82%
same,activity at 0.025 µM,"[1]; Homo sapiens, Keratinocyte, Table 8A, 2.5 × 10^-8 M, n = 3, read-out: TGase, % control",82%
same,activity at 0.0025 µM,"[1]; Homo sapiens, Keratinocyte, Table 8A, 2.5 × 10^-9 M, n = 3, read-out: TGase, % control",76%
same,activity at 2.5 µM,"[1]; Homo sapiens, Keratinocyte, Table 8B, 2.5 × 10^-6 M, n = 3, read-out: TGase, % control",52%
same,activity at 0.00025 µM,"[1]; Homo sapiens, Keratinocyte, Table 8B, 2.5 × 10^-10 M, n = 3, read-out: TGase, % control",108%
same,mean TGase ± s.d,"[1]; Table 3B, RA, RP 2.5 × 10^-7 M, linoleoyl-DEA 10^-6 M, alone or combined, n = 3",0.177 ± 0.026
same,mean TGase ± s.d,"[1]; Table 8A, 2.5 × 10^-6 M, n = 3",0.206 ± 0.034
same,mean TGase ± s.d,"[1]; Table 8A, 2.5 × 10^-7 M, n = 3",0.177 ± 0.026
same,mean TGase ± s.d,"[1]; Table 8A, 2.5 × 10^-8 M, n = 3",0.177 ± 0.054
same,mean TGase ± s.d,"[1]; Table 8A, 2.5 × 10^-9 M, n = 3",0.165 ± 0.030
same,mean TGase ± s.d,"[1]; Table 8B, 2.5 × 10^-6 M, n = 3",0.063 ± 0.019
same,mean TGase ± s.d,"[1]; Table 8B, 2.5 × 10^-10 M, n = 3",0.132 ± 0.038
same,activity at 0.25 µM,"Human keratinocytes; Homo sapiens, Keratinocyte, 24 h, Table 3A, RA 2.5 × 10^-9 M, RP 2.5 × 10^-7 M, linoleoyl-DEA 10^-8 M, alone or combined, n = 3, read-out: thymidine incorporation, % control",111%
same,mean Thymidine incorp./μg protein ± s.d,"Human keratinocytes; Table 3A, RA 2.5 × 10^-9 M, RP 2.5 × 10^-7 M, linoleoyl-DEA 10^-8 M, alone or combined, n = 3",1884 ± 64 DPM/μg protein
same,"effect on keratinocyte proliferation, in words",Human keratinocytes,increased keratinocyte thymidine incorporation over the control
"CCCCC/C=C\C/C=C\CCCCCCCC(=O)NCCO [linoleoyl-MEA, linoleoyl-monoethanolamide]",activity at 0.001 µM,"Human keratinocytes; Homo sapiens, Keratinocyte, 24 h, alone or combined, 24 h, n = 3, read-out: thymidine incorporation, % control",67%
same,activity at 0.001 µM,"Human keratinocytes; Homo sapiens, Keratinocyte, 24 h, alone or combined, 24 h, normalized to ethanol control, n = 3, read-out: mean Thymidine incorp./μg protein ± s.d",67 ± 18%
same,"effect on keratinocyte proliferation, in words",Human keratinocytes,inhibitory effect on keratinocyte proliferation
"CCCCCCCCCCCCCCCC(=O)NCCO [palmitoyl-MEA, palmitoyl-monoethanolamide]",activity at 1 µM,"Human keratinocytes; Homo sapiens, Keratinocyte, 24 h, alone or combined, n = 3, read-out: thymidine incorporation, % control",97%
same,activity at 1 µM,"Human keratinocytes; Homo sapiens, Keratinocyte, alone or combined, control = 1.000, n = 3, read-out: mean Thymidine incorp./μg protein ± s.d",97.4 ± 8%
same,"effect on keratinocyte proliferation, in words",Human keratinocytes,Neither 10^-8 M palmitoyl-MEA nor 2.5×10^-8 M retinol had an effect on keratinocyte proliferation
